As usually defined, the GI50 is the concentration at which growth is held to half of that of the control.

The source of these data is patent US8648076B2, “Cysteine protease inhibitors and their therapeutic applications” (Hybrigenics SA, priority 2005, dated 2014).

Assay [1] relates to HCT116 colon cancer cells. In words: HCT116 cell viability and proliferation assay (MTS). It is filed as cell-based. The note with it: HCT116 cells, 72 hours incubation, MTS, mean of 3 independent experiments, read-out: HCT116 D3 GI50.
Assay [2] relates to PC-3 prostate cancer cells. In words: PC3 cell viability and proliferation assay (MTS). Type of assay: cell-based. The conditions noted are these: PC3 cells, 72 hours incubation, MTS, mean of 3 independent experiments, read-out: PC3 D3 GI50.
Another assay concerns the target T1, Uch-L3 (Homo sapiens, UniProt P15374).
T1 sequence (P15374 1-230): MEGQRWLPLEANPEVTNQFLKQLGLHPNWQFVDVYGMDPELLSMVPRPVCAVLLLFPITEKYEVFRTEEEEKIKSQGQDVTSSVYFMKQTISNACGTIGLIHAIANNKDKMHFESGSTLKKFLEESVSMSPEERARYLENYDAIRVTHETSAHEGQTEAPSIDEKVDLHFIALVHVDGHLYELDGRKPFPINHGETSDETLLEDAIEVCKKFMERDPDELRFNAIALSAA
As to the kind of experiment: UCH-L3 activity assay. It is filed as biochemical. The conditions noted are these: 400 nM Ub-AMC, 13 pM enzyme, 30 min pre-incubation at 25° C., 60 min at 37° C.; sigmoidal fit; AF: Autofluorescent; read-out: Uch-L3 (inhibition of cysteine protease activity). How it is done: Bovine Serum Albumin 0.05 mg·ml^−1 pH7.6). Compounds stocks (100 mM) were stored at −20° C. in DMSO. […] Reactions were performed as duplicates in Black LJL 96 well plates (HE microplates; Molecular Devices; 20 μl final reaction volume). The substrate concentration for Uch-L3 was 400 nM Ub-AMC (Boston Biochem). The concentration of the enzyme (Uch-L3) in specificity assays was 13 pM. The concentrations were determined in order to perform specificity assays under initial velocities at fixed substrate concentration. Compounds were pre-incubated with enzymes for 30 minutes at 25° C. Reactions were initiated by addition of substrate to the plates containing the enzymes (+/−compounds) diluted in assay buffer. Reactions were incubated for 60 minutes at 37° C. Reactions were stopped by adding acetic acid (100 mM final). Readings were performed on a Pherastar Fluorescent Reader (BMG). δ Emission 380 nm; δ Excitation=460 nm. Data (mean values+/− standard deviation) were analyzed as % of control (no compound) and plotted as percentage versus the Log of the compound concentration using GraphPad (Prism). Data were fitted to a sigmoidal model (variable slope).

A further assay addresses T2, USP8 (Homo sapiens, UniProt P40818).
T2 sequence (P40818 1-1118): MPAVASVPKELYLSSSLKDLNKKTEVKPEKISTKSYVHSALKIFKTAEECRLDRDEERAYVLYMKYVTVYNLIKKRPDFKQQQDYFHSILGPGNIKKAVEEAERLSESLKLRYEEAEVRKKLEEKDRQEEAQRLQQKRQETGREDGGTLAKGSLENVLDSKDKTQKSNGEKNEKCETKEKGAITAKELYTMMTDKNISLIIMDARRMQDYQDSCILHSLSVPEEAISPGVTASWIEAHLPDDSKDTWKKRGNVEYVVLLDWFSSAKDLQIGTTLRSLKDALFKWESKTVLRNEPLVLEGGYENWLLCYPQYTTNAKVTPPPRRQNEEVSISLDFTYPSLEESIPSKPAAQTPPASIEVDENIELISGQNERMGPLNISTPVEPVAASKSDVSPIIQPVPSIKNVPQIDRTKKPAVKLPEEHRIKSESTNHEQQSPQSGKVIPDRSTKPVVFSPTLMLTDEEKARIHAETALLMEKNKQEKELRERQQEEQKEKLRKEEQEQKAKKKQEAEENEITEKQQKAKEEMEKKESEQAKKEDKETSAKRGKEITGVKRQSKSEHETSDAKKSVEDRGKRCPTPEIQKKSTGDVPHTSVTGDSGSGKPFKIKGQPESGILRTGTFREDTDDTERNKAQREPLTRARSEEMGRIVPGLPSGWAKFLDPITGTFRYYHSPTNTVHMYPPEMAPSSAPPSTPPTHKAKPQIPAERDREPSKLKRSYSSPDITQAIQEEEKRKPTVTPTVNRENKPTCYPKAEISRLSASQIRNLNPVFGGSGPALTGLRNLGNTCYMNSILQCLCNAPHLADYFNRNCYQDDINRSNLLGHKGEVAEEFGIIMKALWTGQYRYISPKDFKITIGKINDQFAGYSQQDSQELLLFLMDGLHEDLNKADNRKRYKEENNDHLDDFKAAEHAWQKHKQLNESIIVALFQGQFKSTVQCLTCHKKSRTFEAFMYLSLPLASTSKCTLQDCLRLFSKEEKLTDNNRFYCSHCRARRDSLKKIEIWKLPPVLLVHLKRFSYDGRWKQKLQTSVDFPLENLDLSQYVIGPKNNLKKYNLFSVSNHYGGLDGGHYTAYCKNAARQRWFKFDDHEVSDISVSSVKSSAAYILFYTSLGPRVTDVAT
As to the kind of experiment: USP8 activity assay. The conditions noted are these: 400 nM Ub-AMC, pH8.8, 30 min pre-incubation at 25° C., 60 min at 37° C.; sigmoidal fit; AF: Autofluorescent; read-out: USP 8 (inhibition of cysteine protease activity). Type of assay: biochemical.

For another assay, the target named is T3, USP7 (Homo sapiens, UniProt Q93009).
T3 construct: His tag (from pFastBac-HT vector) (N); made in house; host or cells: insect cells (Sf9 or High Five), baculovirus
T3 sequence (Q93009 whole entry): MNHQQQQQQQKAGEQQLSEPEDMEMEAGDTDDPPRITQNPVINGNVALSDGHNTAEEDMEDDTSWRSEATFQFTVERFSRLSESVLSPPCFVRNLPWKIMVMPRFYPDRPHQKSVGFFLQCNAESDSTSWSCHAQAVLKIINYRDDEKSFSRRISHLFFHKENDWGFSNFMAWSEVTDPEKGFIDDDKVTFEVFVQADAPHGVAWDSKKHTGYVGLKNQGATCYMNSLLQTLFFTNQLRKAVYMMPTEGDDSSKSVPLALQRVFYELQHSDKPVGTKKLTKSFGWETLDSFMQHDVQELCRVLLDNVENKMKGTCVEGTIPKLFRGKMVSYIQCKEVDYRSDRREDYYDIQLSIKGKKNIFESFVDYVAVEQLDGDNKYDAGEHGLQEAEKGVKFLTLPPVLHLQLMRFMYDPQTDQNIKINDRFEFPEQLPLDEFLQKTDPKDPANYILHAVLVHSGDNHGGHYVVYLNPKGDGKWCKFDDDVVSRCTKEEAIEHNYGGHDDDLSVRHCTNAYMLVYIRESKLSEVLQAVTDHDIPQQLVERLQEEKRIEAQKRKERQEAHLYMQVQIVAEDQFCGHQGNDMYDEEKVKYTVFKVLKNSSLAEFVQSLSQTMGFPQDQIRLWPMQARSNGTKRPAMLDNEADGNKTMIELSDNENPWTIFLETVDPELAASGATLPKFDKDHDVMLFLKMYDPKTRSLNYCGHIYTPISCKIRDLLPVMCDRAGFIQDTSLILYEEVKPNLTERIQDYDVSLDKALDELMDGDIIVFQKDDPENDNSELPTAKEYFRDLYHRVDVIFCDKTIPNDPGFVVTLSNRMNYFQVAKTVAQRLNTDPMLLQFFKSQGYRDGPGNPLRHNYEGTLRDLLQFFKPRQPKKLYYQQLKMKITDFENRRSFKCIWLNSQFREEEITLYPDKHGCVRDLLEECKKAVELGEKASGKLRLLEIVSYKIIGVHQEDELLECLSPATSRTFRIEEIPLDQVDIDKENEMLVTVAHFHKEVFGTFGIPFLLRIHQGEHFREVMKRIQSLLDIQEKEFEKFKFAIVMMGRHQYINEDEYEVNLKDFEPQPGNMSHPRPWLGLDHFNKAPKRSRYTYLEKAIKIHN
In words: USP7 activity assay. It is filed as biochemical. The note with it: 400 nM Ub-AMC, 152 pM enzyme, 30 min pre-incubation at 25° C., 60 min at 37° C.; sigmoidal fit; read-out: USP 7 (inhibition of cysteine protease activity).

Where two headings read alike, the source gives them in different places. A value given as a limit tells only on which side of the number the result lay.

As to `COc1nc2c(nc1C#N)C(O)c1ccccc1-2` (stereo not shown) [Example 2, 9-hydroxy-3-methoxy-9H-indeno[1,2-b]pyrazine-2-carbonitrile], the GI50 in assay [1] (Homo sapiens, HCT-116) was more than 10000 nM; in assay [2] (Homo sapiens, PC-3, 72 h) it was more than 10000 nM.

On to `CON=C1c2cc(Cl)ccc2-c2nc(C#N)c(C#N)nc21` [Example 24a, 7-Chloro-9-methoxyimino-9H-indeno[1,2-b]pyrazine-2,3-dicarbonitrile], for which the GI50 in assay [1] (Homo sapiens, HCT-116) worked out at 500 nM; in assay [2] (Homo sapiens, PC-3), 390 nM.

Consider `C=CCON=C1c2cc(Cl)ccc2-c2nc(C#N)c(C#N)nc21` [Example 24b, 9-Allyloxyimino-7-chloro-9H-indeno[1,2-b]pyrazine-2,3-dicarbonitrile], for which the GI50 in assay [1] (Homo sapiens, HCT-116) came out at 940 nM; in assay [2] (Homo sapiens, PC-3), 620 nM.

In the case of `N#Cc1nc2c(nc1C#N)-c1cc(Cl)ccc1C2=O` [Example 25, 6-Chloro-9-oxo-9H-indeno[1,2-b]pyrazine-2,3-dicarbonitrile], the GI50 in assay [1] (Homo sapiens, HCT-116) came out at 190 nM; in assay [2] (Homo sapiens, PC-3) it was 1400 nM.

In the case of `N#Cc1nc2c(nc1C(N)=O)-c1ccccc1/C2=N\O` [Example 33, 2-cyano-9-[hydroxyimino]-9H-indeno[1,2-b]pyrazine-3-carboxylic acid amide], the concentration for 50% growth inhibition (GI50) in assay [1] was 1600 nM; in assay [2], 1200 nM. For the same compound, the IC50 on Uch-L3 stood at 596 nM; on USP8, 733 nM; at USP7, 13000 nM.
